According to patent US6221865A, “Inhibitors of protein isoprenyl transferases” (priority 1998, dated 2001):
Structures can show the parent of a compound that is named as a salt.

Each compound was assayed against T1, protein farnesyltransferase (Rattus norvegicus, UniProt Q02293+Q04631) (assay: Inhibition of farnesyltransferase (scintillation proximity assay, rat brain enzyme, biotin-K Ras B fragment substrate)). Conditions: 1 × 10^-5 M (Table 1).
T1 construct: The enzyme is purified according to Reiss, Y., et al., Cell, 62: 81-88 (1990), utilizing steps one through three; from tissue; host or cells: rat brain
T1 sequence (Q02293 whole entry, the tested form may be a part, one chain of several): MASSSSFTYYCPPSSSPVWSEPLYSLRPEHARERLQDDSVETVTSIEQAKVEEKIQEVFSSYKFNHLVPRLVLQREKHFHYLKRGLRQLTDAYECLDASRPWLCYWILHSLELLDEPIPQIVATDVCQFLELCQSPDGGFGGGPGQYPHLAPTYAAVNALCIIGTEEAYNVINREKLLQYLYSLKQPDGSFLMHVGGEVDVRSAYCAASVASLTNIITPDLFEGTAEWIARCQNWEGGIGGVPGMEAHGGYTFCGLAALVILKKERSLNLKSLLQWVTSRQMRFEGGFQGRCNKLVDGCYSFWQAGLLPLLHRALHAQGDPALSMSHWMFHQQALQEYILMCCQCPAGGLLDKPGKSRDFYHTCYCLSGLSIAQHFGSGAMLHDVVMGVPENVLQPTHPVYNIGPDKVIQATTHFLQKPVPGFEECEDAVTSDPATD
Assay type: biochemical
Excerpt: The ability of the compounds of the invention to inhibit protein farnesyltransferase or protein geranylgeranyltransferase can be measured according to the method of Moores, et al., J. Biol. Chem. 266: 14603 (1991) or the method of Vogt, et al., J. Biol. Chem. 270:660-664 (1995). In addition, procedures for determination of the inhibition of farnesylation of the oncogene protein Ras are described by Goldstein, et al., J. Biol. Chem., 266:15575-15578 (1991) and by Singh in U.S. Pat. No. 5,245,061.
In addition, in vitro inhibition of protein farnesyltransferase may be measured by the following procedure. Rat brain protein farnesyltransferase activity is measured using an Amersham Life Science commercial scintillation proximity assay kit and substituting a biotin-K Ras B fragment (biotin-[…]Ble-Met-CO2 H), […] final concentration, for the biotin-lamin substrate provided by Amersham. The enzyme is purified according to Reiss, Y., et al., Cell, 62: 81-88 (1990), utilizing steps one through three.
The % inhibition of protein farnesyltransferase was determined for representative compounds of the invention.

Row | SMILES | % inhibition of farnesyltransferase at 1 × 10^-5 M [%]
1 | CSCC[C@H](NC(=O)c1ccc(CNc2ccc(O)cc2)cc1-c1ccccc1)C(=O)O [Example 689] | 73
2 | CSCC[C@H](NC(=O)c1ccc(NC(=O)CCN)cc1-c1ccccc1)C(=O)O [Example 750] | 44

Same assay, conditions: 1 × 10^-6 M (Table 2)

Row | SMILES | % inhibition of farnesyltransferase at 1 × 10^-6 M [%]
3 | COC(=O)c1cscc1NCc1ccc(C(=O)N[C@@H](CCSC)C(=O)O)c(-c2ccccc2C)c1 [Example 724] | 87
4 | CSCC[C@H](NC(=O)c1ccc(CNCCSc2ccccc2)cc1-c1ccccc1)C(=O)O [Example 667] | 83
5 | CSCC[C@H](NC(=O)c1ccc(COCc2ccoc2)cc1-c1ccccc1C)C(=O)O [Example 530] | 94
6 | CSCC[C@H](NC(=O)c1ccc(CNc2ccccc2Oc2ccccc2)cc1-c1ccccc1)C(=O)O [Example 645] | 37
7 | CSCC[C@H](NC(=O)c1ccc(CN[C@@H](CC2CCCCC2)[C@@H](O)[C@@H](O)CC(C)C)cc1-c1ccccc1)C(=O)O [Example 716] | 69
8 | CSCC[C@H](NC(=O)c1ccc(OCCCCOc2ccccc2)cc1-c1ccccc1C)C(=O)O [Example 568] | 93
9 | CSCC[C@H](NC(=O)c1ccc(CNc2ccc(S(=O)(=O)Nc3onc(C)c3C)cc2)cc1-c1ccccc1C)C(=O)O [Example 726] | 81
10 | CSCC[C@H](NC(=O)c1ccc(NC(=O)OCc2cncs2)cc1-c1ccccc1C)C(=O)O [Example 902] | 85
11 | CSCC[C@H](NC(=O)c1ccc(CNCC(O)CO)cc1-c1ccccc1)C(=O)O (some centres unmarked) [Example 632] | 43
12 | COc1ccc(CC(=O)Nc2ccc(C(=O)N[C@@H](CCSC)C(=O)O)c(-c3ccccc3C)c2)cc1 [Example 542] | 67
13 | CSCC[C@H](NC(=O)c1ccc(CNCCSC(C)(C)C)cc1-c1ccccc1)C(=O)O [Example 627] | 85
14 | CSCC[C@H](NC(=O)c1ccc(CN(CCC2CCCCC2)C(=O)N(C)C)cc1-c1ccccc1C)C(=O)O [Example 610] | 94
15 | CSCC[C@H](NC(=O)c1ccc(NCC2CNCCN2)cc1-c1ccccc1)C(=O)O (some centres unmarked) [Example 286] | 84
16 | CSCC[C@H](NC(=O)c1ccc(COCC2CCCO2)cc1-c1ccccc1)C(=O)O (some centres unmarked) [Example 288] | 22

Same assay, conditions: 1 × 10^-7 M (Table 3)

Row | SMILES | % inhibition of farnesyltransferase at 1 × 10^-7 M [%]
17 | CSCC[C@H](NC(=O)c1ccc(COCC2CCC(c3ccc(Cl)cc3)O2)cc1-c1ccccc1C)C(=O)O (some centres unmarked) [Example 822] | 93
18 | CCSC[C@H](CC1CCCCC1)N(Cc1ccc(C(=O)N[C@@H](CCSC)C(=O)O)c(-c2ccccc2C)c1)C(=O)OC(C)(C)C [Example 948] | 75
19 | CSCC[C@H](NC(=O)c1ccc(CNC(Cc2ccccc2)Cc2ccccc2)cc1-c1ccccc1C)C(=O)O [Example 523] | 97
20 | CSCC[C@H](NC(=O)c1ccc(COc2ccc3ccccc3c2)cc1-c1ccccc1C)C(=O)O [Example 573] | 72
21 | CSCC[C@H](NC(=O)c1ccc(CN[C@H](CCCC(C)C)CC2CCCCC2)cc1-c1ccccc1C)C(=O)O [Example 527] | 97
22 | CSCC[C@H](NC(=O)c1ccc(COCc2cnc(C(C)(C)C)s2)cc1-c1ccccc1C)C(=O)[O-].[Li+] [Example 895] | 92
23 | CSCC[C@H](NC(=O)c1ccc(COCc2ccc(Br)o2)cc1-c1ccccc1C)C(=O)[O-].[Li+] [Example 434] | 93
24 | CSCC[C@H](NC(=O)c1ccc(CN(Cc2ccccc2)c2ccccc2[N+](=O)[O-])cc1-c1ccccc1C)C(=O)[O-].[Li+] [Example 849] | 66
25 | CSCC[C@H](NC(=O)c1ccc(CSc2ccc(C)cc2C)cc1-c1ccccc1C)C(=O)O [Example 741] | 89
26 | CSCC[C@H](NC(=O)c1ccc(CSc2ncnc3[nH]ncc23)cc1-c1ccccc1C)C(=O)O [Example 746] | 84
27 | CSCC[C@H](NC(=O)c1ccc(CSc2ccc(F)cc2)cc1-c1ccccc1C)C(=O)O [Example 740] | 94

Same assay, conditions: 1 × 10^-8 M (Table 4)

Row | SMILES | % inhibition of farnesyltransferase at 1 × 10^-8 M [%]
28 | CSCC[C@H](NC(=O)c1ccc(COCc2cc(-c3ccc(Cl)cc3)co2)cc1-c1ccccc1C)C(=O)[O-].[Li+] [Example 904] | 85
29 | CSCC[C@H](NC(=O)c1ccc(CN(C)C(CC2CCCCC2)CC2CCCCC2)cc1-c1ccccc1C)C(=O)O [Example 907] | 79
30 | CSCC[C@H](NC(=O)c1ccc(COCc2cnc(-c3cccc(Cl)c3)s2)cc1-c1ccccc1C)C(=O)[O-].[Li+] [Example 899] | 88
31 | CCSC[C@H](CC(C)C)NCc1ccc(C(=O)N[C@@H](CCSC)C(=O)O)c(-c2ccccc2C)c1 [Example 905] | 86

Same assay, conditions: Table 6, ** = 0.01 μM (footnote); title prints 0.01 mM

Row | SMILES | % inhibition at 0.01 μM (**) [%]
32 | CCSCC(CC1CCCCC1)NCc1cc(-c2ccccc2C)c(C(=O)N[C@@H](CCSC)C(=O)O)cc1F (some centres unmarked) [Example 1134] | 95
33 | COCCN(CCC1CCCCC1)Cc1ccc(C(=O)N[C@@H](CCSC)C(=O)O)c(-c2ccccc2C)c1 [Example 1104] | 89

Same assay, conditions: read-out: % inhibition at 0.1 μM (*); Table 6, * = 0.1 μM (footnote); title prints 0.1 mM

Row | SMILES | inhibition at 0.1 µM [%]
34 | COCC1CCC(Cc2ccccc2)N1Cc1ccc(C(=O)N[C@@H](CCSC)C(=O)O)c(-c2ccccc2C)c1 (some centres unmarked) [Example 1118, N-[4-(2-methoxymethyl-5-benzylpyrrolidin-1-ylmethyl)-2-(2-methylphenyl)benzoyl]methionine] | 86

Same assay, conditions: read-out: % inhibition of farnesyltransferase at 1 × 10^-6 M; 1 × 10^-6 M (Table 2)

Row | SMILES | inhibition at 1 µM [%]
35 | CSCC[C@H](NC(=O)c1ccc(CCCc2ccc3ccccc3c2)cc1-c1ccccc1C)C(=O)O [Example 470, N-[4-(3-naphth-2-ylpropyl)-2-(2-methylphenyl)benzoyl]methionine lithium salt] | 95
36 | CSCC[C@H](NC(=O)c1ccc(CN(C(C)C)C(C)(C)Cc2ccccc2)cc1-c1ccccc1C)C(=O)O [Example 317] | 54
37 | Cc1ccccc1-c1cc(CCc2ccc(Oc3ccccc3)cc2)ccc1C(=O)N[C@@H](CC[S+](C)[O-])C(=O)O (some centres unmarked) [Example 463, N-[4-(2-(4-phenoxyphenyl)ethyl)-2-(2-methylphenyl)benzoyl]-2-amino-4-methylsulfinylbutanoic acid lithium salt] | 91
38 | CSCC[C@H](NC(=O)c1ccc(S(=O)(=O)NCCCn2ccnc2)cc1-c1ccccc1C)C(=O)O [Example 777, lithium salt] | 83

Same assay, conditions: read-out: % inhibition of farnesyltransferase at 1 × 10^-7 M; 1 × 10^-7 M (Table 3)

Row | SMILES | inhibition at 0.1 µM [%]
39 | CSCC[C@H](NC(=O)c1ccc(CCc2ccc(Oc3cccc(Cl)c3)cc2)cc1-c1ccccc1C)C(=O)O [Example 859, N-[4-(2-(4-(3-chlorophenoxy)phenyl)ethyl)-2-(2-methylphenyl)benzoyl]methionine] | 86
40 | CSCC[C@H](NC(=O)c1ccc(CCc2ccc(Oc3ccccc3)nn2)cc1-c1ccccc1C)C(=O)O [Example 811, N-[4-(2-(3-phenoxylyridazin-6-yl)ethyl)-2-(2-methylphenyl)benzoyl]methionine lithium salt] | 85
41 | CSCC[C@H](NC(=O)c1ccc(CCc2cccc(Oc3ccccc3)c2)cc1-c1ccccc1C)C(=O)O [Example 459, N-[4-(2-(3-phenoxyphenyl)ethyl)-2-(2-methylphenyl)benzoyl]methionine lithium salt] | 92
